According to ChEMBL document CHEMBL1201862, “PubChem BioAssay data set” (2004):
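These data come from cells grown in 96-well plates and exposed to compound for 48 hours at five concentrations. GI50 = concentration required for 50% inhibition of growth.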 The source made the active and inactive calls. Cut-off read from the data, not from the text of the source: active = GI50 up to about 1.1 µM and inactive = higher.

How the values were obtained:
Test in all cases: DTP human tumour cell line panel, 48 h
OVCAR-5 = tested on: OVCAR-5
RXF 393 = tested on: RXF 393
HOP-92 = tested on: HOP-92
Malme-3M = tested on: Malme-3M
UACC-62 = tested on: UACC-62
OVCAR-8 = tested on: OVCAR-8
SW-620 = tested on: SW-620
SNB-75 = tested on: SNB-75
A498 = tested on: A498
MOLT-4 = tested on: MOLT-4
SNB-19 = tested on: SNB-19
U-251 = tested on: U-251
ACHN = tested on: ACHN
K562 = tested on: K562
HCT-116 = tested on: HCT-116
SK-MEL-2 = tested on: SK-MEL-2
SN12C = tested on: SN12C
SK-MEL-5 = tested on: SK-MEL-5
COLO 205 = tested on: COLO 205
SK-OV-3 = tested on: SK-OV-3

Structure (SMILES) | GI50 (OVCAR-5) | GI50 (RXF 393) | GI50 (HOP-92) | GI50 (Malme-3M) | GI50 (UACC-62) | GI50 (OVCAR-8) | GI50 (SW-620) | GI50 (SNB-75) | GI50 (A498) | GI50 (MOLT-4) | GI50 (SNB-19) | GI50 (U-251) | GI50 (ACHN) | GI50 (K562) | GI50 (HCT-116) | GI50 (SK-MEL-2) | GI50 (SN12C) | GI50 (SK-MEL-5) | GI50 (COLO 205) | GI50 (SK-OV-3)
NC(=O)c1ncn(C2OC(CO)C(O)C2O)c1O (stereo not drawn) | 58.1 µM (inactive) | > 100 µM (inactive) | 46.8 µM (inactive) | > 100 µM (inactive) | > 100 µM (inactive) | > 100 µM (inactive) | 44.4 µM (inactive) | > 100 µM (inactive) | > 100 µM (inactive) | 72.1 µM (inactive) | > 100 µM (inactive) | > 100 µM (inactive) | > 100 µM (inactive) | > 100 µM (inactive) | 72.6 µM (inactive) | > 100 µM (inactive) | > 100 µM (inactive) | – | – | –
O=C1C=Cc2c(Cl)sc(Cl)c21 | 4.3 µM (inactive) | 2.09 µM (inactive) | 1.5 µM (inactive) | – | 3.01 µM (inactive) | 1.6 µM (inactive) | 0.845 µM (active) | 3.61 µM (inactive) | 4.06 µM (inactive) | 0.12 µM (active) | 4.63 µM (inactive) | 2.99 µM (inactive) | 1.71 µM (inactive) | 0.767 µM (active) | 0.752 µM (active) | 2.2 µM (inactive) | 2.18 µM (inactive) | 2.11 µM (inactive) | 1.45 µM (inactive) | 15.2 µM (inactive)
Nc1ccc(-c2nc3ccccc3s2)cc1C#Cc1ccccc1 | 27.2 µM (inactive) | 17.3 µM (inactive) | 18.8 µM (inactive) | 12.2 µM (inactive) | 17.9 µM (inactive) | 19.8 µM (inactive) | 17.8 µM (inactive) | 25.3 µM (inactive) | 21 µM (inactive) | 32.5 µM (inactive) | 22.3 µM (inactive) | 20.1 µM (inactive) | 18.8 µM (inactive) | 31 µM (inactive) | 14.4 µM (inactive) | – | 18.8 µM (inactive) | 17 µM (inactive) | 16.3 µM (inactive) | 24.3 µM (inactive)
N#C/C(C(=O)Nc1ccccc1)=C(/N)N1CCCC1 | > 100 µM (inactive) | > 100 µM (inactive) | > 100 µM (inactive) | > 100 µM (inactive) | > 100 µM (inactive) | > 100 µM (inactive) | > 100 µM (inactive) | – | > 100 µM (inactive) | > 100 µM (inactive) | > 100 µM (inactive) | > 100 µM (inactive) | > 100 µM (inactive) | > 100 µM (inactive) | > 100 µM (inactive) | > 100 µM (inactive) | > 100 µM (inactive) | > 100 µM (inactive) | > 100 µM (inactive) | > 100 µM (inactive)
COc1c(C)c(OCC=C(C)C)cc(CO)c1CO | > 100 µM (inactive) | 10.7 µM (inactive) | > 100 µM (inactive) | – | 60.8 µM (inactive) | 36 µM (inactive) | 74.5 µM (inactive) | 47.6 µM (inactive) | 44.1 µM (inactive) | 26.7 µM (inactive) | 88.3 µM (inactive) | 50.1 µM (inactive) | 67.8 µM (inactive) | 26.3 µM (inactive) | 32.6 µM (inactive) | 71.4 µM (inactive) | 88.3 µM (inactive) | 22.6 µM (inactive) | 58.6 µM (inactive) | 97.3 µM (inactive)
O=C1/C(=C/c2ccccc2O)N=C(c2ccccc2)N1C1Nc2cc3c(cc2S1)NC(N1C(=O)/C(=C/c2ccccc2O)N=C1c1ccccc1)S3 (stereo not drawn) | > 100 µM (inactive) | 23.7 µM (inactive) | 0.489 µM (active) | – | – | 30.7 µM (inactive) | 36.3 µM (inactive) | – | 20 µM (inactive) | 35.5 µM (inactive) | – | 29.6 µM (inactive) | 21.7 µM (inactive) | 29.9 µM (inactive) | 27.3 µM (inactive) | 35.2 µM (inactive) | – | 29.7 µM (inactive) | – | 35.8 µM (inactive)
CC1C2CC(CC23OCC(CCl)O3)C1(C)C (stereo not drawn) | – | > 100 µM (inactive) | > 100 µM (inactive) | > 100 µM (inactive) | > 100 µM (inactive) | > 100 µM (inactive) | > 100 µM (inactive) | > 100 µM (inactive) | > 100 µM (inactive) | > 100 µM (inactive) | > 100 µM (inactive) | – | > 100 µM (inactive) | > 100 µM (inactive) | > 100 µM (inactive) | – | > 100 µM (inactive) | > 100 µM (inactive) | > 100 µM (inactive) | > 100 µM (inactive)
FC(F)(F)c1cccnc1Sc1nc2ccccc2s1 | 34.1 µM (inactive) | > 100 µM (inactive) | 16.3 µM (inactive) | > 100 µM (inactive) | > 100 µM (inactive) | > 100 µM (inactive) | > 100 µM (inactive) | 59.6 µM (inactive) | > 100 µM (inactive) | 52.1 µM (inactive) | > 100 µM (inactive) | > 100 µM (inactive) | > 100 µM (inactive) | > 100 µM (inactive) | > 100 µM (inactive) | 20.7 µM (inactive) | > 100 µM (inactive) | > 100 µM (inactive) | > 100 µM (inactive) | –
COC(=O)/C=c1/c2ccccc2n2c1c1ccccc1[n+]2C | 4.6 µM (inactive) | 4.54 µM (inactive) | – | 2.98 µM (inactive) | 6.73 µM (inactive) | 3.33 µM (inactive) | 2.76 µM (inactive) | 3.69 µM (inactive) | 4.18 µM (inactive) | 4.27 µM (inactive) | 4.88 µM (inactive) | 2.61 µM (inactive) | 3.92 µM (inactive) | 3.64 µM (inactive) | 3.31 µM (inactive) | 4.08 µM (inactive) | 3.65 µM (inactive) | 2.81 µM (inactive) | 1.26 µM (inactive) | 2.67 µM (inactive)
COC1OC(Cn2cc([N+](=O)[O-])nc2C)C(O)C(O)C1O (stereo not drawn) | > 100 µM (inactive) | > 100 µM (inactive) | > 100 µM (inactive) | 5.93 µM (inactive) | > 100 µM (inactive) | – | > 100 µM (inactive) | – | > 100 µM (inactive) | > 100 µM (inactive) | > 100 µM (inactive) | > 100 µM (inactive) | > 100 µM (inactive) | > 100 µM (inactive) | > 100 µM (inactive) | > 100 µM (inactive) | – | > 100 µM (inactive) | > 100 µM (inactive) | > 100 µM (inactive)
C=C(Br)C(Cl)(CBr)CCC(Br)C(C)(C)Cl (stereo not drawn) | > 10 µM (inactive) | > 10 µM (inactive) | > 10 µM (inactive) | – | > 10 µM (inactive) | > 10 µM (inactive) | > 10 µM (inactive) | > 10 µM (inactive) | > 10 µM (inactive) | > 10 µM (inactive) | > 10 µM (inactive) | > 10 µM (inactive) | > 10 µM (inactive) | > 10 µM (inactive) | > 10 µM (inactive) | > 10 µM (inactive) | > 10 µM (inactive) | > 10 µM (inactive) | > 10 µM (inactive) | > 10 µM (inactive)
CC(=O)C1=C(c2ccccc2)N(C2OC(CO)C(O)C(O)C2O)C(S)=C(C#N)C1c1ccc(Cl)cc1 (stereo not drawn) | 62.2 µM (inactive) | 28.6 µM (inactive) | 19.7 µM (inactive) | 24.8 µM (inactive) | 16.4 µM (inactive) | 33.5 µM (inactive) | 8.53 µM (inactive) | 28.8 µM (inactive) | 38.6 µM (inactive) | 15.8 µM (inactive) | 34.9 µM (inactive) | 17.9 µM (inactive) | 29.7 µM (inactive) | 32.7 µM (inactive) | 16 µM (inactive) | 12.9 µM (inactive) | 38.5 µM (inactive) | 19.6 µM (inactive) | 24.7 µM (inactive) | –
COc1ccc(N(C(=O)Nc2ccc(Cl)c(Cl)c2)c2ccccc2)cc1 | > 10 µM (inactive) | > 10 µM (inactive) | > 10 µM (inactive) | > 10 µM (inactive) | > 10 µM (inactive) | > 10 µM (inactive) | > 10 µM (inactive) | – | > 10 µM (inactive) | > 10 µM (inactive) | > 10 µM (inactive) | > 10 µM (inactive) | > 10 µM (inactive) | > 10 µM (inactive) | > 10 µM (inactive) | – | > 10 µM (inactive) | > 10 µM (inactive) | > 10 µM (inactive) | > 10 µM (inactive)
CCN(CC)CCn1c2cc3c(cc2c(=O)c2cccnc21)OCCO3 | – | > 10 µM (inactive) | > 10 µM (inactive) | > 10 µM (inactive) | > 10 µM (inactive) | > 10 µM (inactive) | 5.28 µM (inactive) | > 10 µM (inactive) | 0.0912 µM (active) | 3.78 µM (inactive) | > 10 µM (inactive) | > 10 µM (inactive) | 4.99 µM (inactive) | – | 4.72 µM (inactive) | – | 9.71 µM (inactive) | > 10 µM (inactive) | > 10 µM (inactive) | > 10 µM (inactive)
OCCN(CCO)c1cccc(N(CCO)CCO)c1 | – | > 100 µM (inactive) | > 100 µM (inactive) | – | 72.8 µM (inactive) | > 100 µM (inactive) | > 100 µM (inactive) | > 100 µM (inactive) | > 100 µM (inactive) | > 100 µM (inactive) | 39.2 µM (inactive) | > 100 µM (inactive) | > 100 µM (inactive) | > 100 µM (inactive) | > 100 µM (inactive) | > 100 µM (inactive) | – | > 100 µM (inactive) | > 100 µM (inactive) | > 100 µM (inactive)
C=C1C(=O)CCC1C(=O)O (stereo not drawn) | > 100 µM (inactive) | > 100 µM (inactive) | – | > 100 µM (inactive) | > 100 µM (inactive) | > 100 µM (inactive) | > 100 µM (inactive) | 11.8 µM (inactive) | > 100 µM (inactive) | > 100 µM (inactive) | > 100 µM (inactive) | > 100 µM (inactive) | > 100 µM (inactive) | > 100 µM (inactive) | > 100 µM (inactive) | > 100 µM (inactive) | > 100 µM (inactive) | > 100 µM (inactive) | > 100 µM (inactive) | > 100 µM (inactive)
